Key:
guinea pig right atria [1] = biological target: T1, guinea pig right atria (Cavia porcellus, UniProt H0W3H1); assay: Beta blocking activity in vitro, guinea pig right atria (isoproterenol-induced rate change); conditions: guinea pig right atria, vs isoproterenol, 60-minute incubation; read-out: pA2 value in the atria (converted)
T1 construct: from tissue; host or cells: guinea pig right atria (isolated, spontaneously beating)
Protocol: (§1) Compounds of the present invention are tested for β-blocking activity in vitro using guinea pig right atria and guinea pig tracheal strips mounted in a tissue bath containing oxygenated (95% O2 -5% CO2) Krebs physiological salt solution at 37° C. Each tissue is suspended between a fixed glass rod and a Statham Universal Transducer connected to a Beckman recorder. Atria were allowed to beat spontaneously under a loading tension of approximately 0.5 gm. Intrinsic depressant or stimulant activity is determined for each compound by progressively increasing concentrations in the tissue baths at 60-minute intervals. Tissues are not washed between increments. The maximum concentration showing little or no cardiodepressant activity is chosen for blockade experiments. Changes in rate in response to isoproterenol, a standard β-receptor agonist, is measured in the absence and presence of test compounds. Spiral strips of guinea pig trachea are suspended under 5 gm resting tension and incubated with phentolamine, tropolone and cocaine. Active tension is generated by addition of carbachol (3.0×10^-7 M) and decreases in tension in response to isoproterenol are quantitated. Cumulative concentration-response curves are produced with isoproterenol both before and after 60-minute incubation of test compounds with atria and trachea. […]

guinea pig right atria [2] = assay: as above; conditions: ratio greater than one indicates cardioselectivity
Protocol: as §1

[3] = biological target: T2, guinea pig tracheal strips (Cavia porcellus, UniProt Q8K4Z4); assay: Beta blocking activity in vitro, guinea pig tracheal strips (isoproterenol-induced relaxation); conditions: carbachol tension, vs isoproterenol, 60-minute incubation, read-out: pA2 value in the trachea (converted)
T2 construct: from tissue; host or cells: guinea pig tracheal spiral strips
Protocol: as §1

[4] = system: β-blockade of isoproterenol heart rate response; assay: Duration of beta-blocking action in vivo, anesthetized dogs; parameters: species or system dog; conditions: pentobarbital-anesthetized dogs, after 3-hour infusion, isoproterenol 0.5 μg/kg bolus
Protocol: The duration of β-blockade is determined In vivo using pentobarbital-anesthetized dogs instrumented for measurement of heart rate using a Beckman cardiotachometer triggered electronically by a phasic aortic blood pressure signal. Both vagus nerves are severed in the cervical region and the animals are mechanically ventilated. The experimental design used employs a 3-hour infusion of test compound. Bolus doses of isoproterenol (0.5 μg/kg) are used to assess the degree of β-blockade and recovery from β-blockade after […] of the infusion. The doses are spaced at 10-minute intervals and are given before, during and following the infusion of test compounds. The infusion rate is adjusted so that at the end of the 3-hour infusion period the degree of isoproterenol inhibition averaged about 50% of control. Following termination of blocker infusion, percent recovery from β-blockade is computed and the time associated with 80% recovery estimated.

T2 sequence (Q8K4Z4 whole entry): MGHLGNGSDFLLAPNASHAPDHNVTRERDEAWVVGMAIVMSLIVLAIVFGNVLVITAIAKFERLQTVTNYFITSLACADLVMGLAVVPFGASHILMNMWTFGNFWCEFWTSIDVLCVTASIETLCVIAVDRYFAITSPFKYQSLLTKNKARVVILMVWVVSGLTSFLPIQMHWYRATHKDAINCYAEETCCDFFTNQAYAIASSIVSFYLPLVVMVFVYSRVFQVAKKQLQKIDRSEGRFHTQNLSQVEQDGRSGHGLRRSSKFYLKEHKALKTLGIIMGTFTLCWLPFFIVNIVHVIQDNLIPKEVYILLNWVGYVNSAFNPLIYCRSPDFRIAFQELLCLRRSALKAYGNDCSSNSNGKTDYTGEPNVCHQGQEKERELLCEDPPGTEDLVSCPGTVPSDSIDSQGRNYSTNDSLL
T1 sequence (H0W3H1 1-470): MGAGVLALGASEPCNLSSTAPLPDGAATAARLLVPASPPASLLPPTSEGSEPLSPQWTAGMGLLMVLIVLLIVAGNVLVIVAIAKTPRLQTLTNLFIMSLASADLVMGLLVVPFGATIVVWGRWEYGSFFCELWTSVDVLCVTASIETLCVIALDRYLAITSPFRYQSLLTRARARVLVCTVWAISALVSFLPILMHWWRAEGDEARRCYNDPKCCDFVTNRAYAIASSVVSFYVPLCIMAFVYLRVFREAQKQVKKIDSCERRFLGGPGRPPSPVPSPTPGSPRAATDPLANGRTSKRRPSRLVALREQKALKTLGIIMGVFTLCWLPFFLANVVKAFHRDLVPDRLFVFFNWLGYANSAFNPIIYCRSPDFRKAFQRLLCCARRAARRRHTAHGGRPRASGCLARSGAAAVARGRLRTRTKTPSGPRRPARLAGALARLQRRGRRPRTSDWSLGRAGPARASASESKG

- Kb (guinea pig right atria [1]): 31.6 nM
- Kb [3]: 79.4 nM
SMILES: COC(=O)c1ccccc1OCC(O)CNCCNc1ccc([N+](=O)[O-])cn1 (stereo not shown) [Example I, Methyl 2[2-Hydroxy-3-[2-[2-(5-nitropyridinyl)amino]ethyl]aminopropoxy benzoate]
- cardioselectivity (ratio KB trachea/KB atria) (guinea pig right atria [2]): 2.5
- in vivo duration of action (time to 80% recovery from β-blockade) [4]: 15 ± 6 min
